Laboratory results from PMC4707489, “A novel cell-penetrating peptide suppresses breast tumorigenesis by inhibiting β-catenin/LEF-1 signaling” (Scientific Reports, 2016).

Legend:
[1] = tested on: MDA-MB-231-GFP cells xenograft; experiment: Xenograft tumor growth in nude mice; type: in vivo, mouse; details: MDA-MB-231 xenograft, 1 and 10 mg/kg intratumoral once every 2 days for 35 days, n = 5 per group, vs control peptide
Text: (§1) All animal experiments were approved by the Kaohsiung Medical University Institutional Animal Care and Use Committee (IACUC Approval No: 101156) and we accordance with the approved guidelines. Female nude mice (4–5 weeks old) were obtained from the National Laboratory Animal Center (Taipei, Taiwan). Xenograft tumor models were established by subcutaneous injection of 1 × 10^7 MCF-7-YFP or MDA-MB-231-GFP cells into the right flanks of mice. Mice with palpable tumors were randomly divided into three groups with five animals in each group. The mice were treated with control peptide, […], 1 and 10 mg/kg TAT-NLS-BLBD-6 by intratumoral injection once every 2 days for 35 days. The fluorescence density was analyzed by an In Vivo Imaging System (IVIS) (Berthold Technologies, Bad Wildbad, Germany), and the tumor volumes (V) of nude mice were calculated by: V = length × diameter^2 × 0.5. For zebrafish xenotransplantation, zebrafishes (Danio rerio) were maintained at 28 °C in an air incubator, and 1 × 10^4 MCF-7-GFP or MDA-MB-231-GFP cells combined with TAT-NLS-BLBD-6 or control peptide were injected into the zebrafish embryos according to the previously described protocol. The fluorescence density was measured 24 and 28 hr after injection using an epifluorescence microscope.

[2] = tested on: MCF-7-YFP cells xenograft; experiment: Xenograft tumor growth in nude mice; type: in vivo, mouse; details: MCF-7 xenograft, 1 and 10 mg/kg intratumoral once every 2 days for 35 days, n = 5 per group, vs control peptide
Text: as §1

β-catenin = experiment: Peptide-protein interaction by immunoprecipitation and PLA; type: binding, human
Procedure: Immunoprecipitation and western blotting were performed as described previously. MCF-7 and MDA-MB-231 cells were harvested in 4 °C phosphate-buffered saline and cell pellets were lysed with RIPA lysis buffer (Millipore, Bedford, MA, USA) for 30 min on ice. Cell lysis supernatant liquid was obtained by centrifugation at 10,000 × g for 10 min, incubated with protein-G beads (Roche, Indianapolis, IN) and anti-β-catenin, and subjected to western blotting. For the western blotting assay, cellular extract proteins were separated by SDS-polyacrylamide gel (SDS-PAGE) and transferred to nitrocellulose membrane (Millipore) using a dry transfer apparatus (Bio-Rad). […]
MCF-7 and MDA-MB-231 cells were cultured in 35-mm plates with cover slides on the plate bottom and treated with NLS-BLBD-6, TAT-BLBD-6 and TAT-NLS-BLBD-6 peptide for 24 hr. […] For the immunofluorescence assay, the slides were incubated with primary antibodies, anti-β-catenin (Epitomics) and anti-TAT (Santa Cruz), for 6 hr, and Alexa-488 fluorescence secondary antibodies for 1 hr. […] For the TUNEL assay, apoptosis was analyzed by the Apo-BrdU-red DNA Fragmentation Assay kit, according to the manufacturer’s protocol (BioVision, Mountain View, CA, USA). For the PLA, the protein–protein interaction assay was analyzed by Duolink® using PLA® Technology, according to the manufacturer’s protocol (Olink Bioscience, Uppsala, Sweden). […]

MCF-7 cells = experiment: Cell growth (CCK-8); type: cell-based, human
Procedure: (§2) Cell growth was analyzed using 2-(2-methoxy-4-nitrophenyl)-3-(4-nitroph enyl)-5-(2,4-disulfophenyl)-2H-tetrazolium, monosodium salt, and the Cell Counting Kit-8 (CCK-8, Sigma). […] After culturing for another 48 hr, cell growth was analyzed by CCK-8 and the optical density was detected at 450 nm. The growth ratio was normalized to the cells without treatment.

MDA-MB-231 cells = experiment: Cell cycle analysis, sub-G1 (propidium iodide, flow cytometry); type: cell-based, human; details: MDA-MB-231, 100 μmol/l peptide, flow cytometry (Fig. 3a)
Procedure: MCF-7 and MDA-MB-231 cells were plated in 6-well plates for 24 hr, and the medium was replaced with fresh culture medium containing 100 μmol/l peptide. After incubation for 24 hr, the cells were harvested by trypsinization and then fixed with 70% 4 °C ethanol. Intracellular DNA was stained with […] propidium iodide in the dark for 30 min at room temperature, and the percentages of sub-G1 cells were determined by flow cytometry (BD LSRII analyzer; BD Biosciences).

ZR-75-30 cells = experiment: Cell growth (CCK-8), HER2 positive cell line; type: cell-based, human; details: ZR-75-30, 100 μmol/l, CCK-8 at 48 hr post-transfection (Fig. 6f)
Procedure: as §2

breast cancer cells = experiment: Cell growth in combination with E2, BBP or TAM (CCK-8); type: cell-based, human; details: 48 hr (Fig. 1e)
Procedure: as §2

H-TAT-NLS-ATDEMIPF-NH2 [TAT-NLS-BLBD-6]
tumor growth [1]: inhibited tumor growth | tumor growth [2]: inhibited tumor growth | binding to β-catenin (β-catenin; MCF-7 cell nuclei, immunoprecipitation and PLA, 2 hr post-transfection (Fig. 2b,c)): bound to the β-catenin elements | binding to β-catenin (β-catenin; MDA-MB-231 cell nuclei, PLA, 100 μmol/l, 2 hr post-transfection (Fig. 2c)): bound to the β-catenin elements | cell growth (MCF-7 cells; 75 μmol/l peptide, MCF-7, CCK-8, means of three experiments (Fig. 1b)): inhibited the growth | time and dose dependence of cell growth (MCF-7 cells; MCF-7, indicated concentrations, 24, 48 and 72 hr (Fig. 1c,d)): inhibited breast cancer cell growth in a time- and dose-dependent manner | sub-G1 phase region (pro-apoptotic effect) (MDA-MB-231 cells): 43.10% | cell growth (ZR-75-30 cells): inhibits the growth | cell growth, combination with E2 or BBP (breast cancer cells; peptide 100 μmol/l with E2 (1 μM) or BBP (1 μM)): blocked the activity of E2 and BBP | cell growth, combination with TAM (breast cancer cells; peptide 100 μmol/l with TAM (1 μM)): increased the response of TAM
